Among the data in patent US20200255411A1, “ISOINDOLINE DERIVATIVES” (VIIV HEALTHCARE UK LIMITED, priority 2015, published 2020) are IC50 values, retold here.

The subject of this assay is HIV in the HTLV-1 transformed cell line MT-4. The experiment in a line: MT4 assay (antiviral HIV activity). In kind it is cell-based. The conditions noted are these: MT-4 cells, readout at 96 hours with cell titer glo, 10 point dose response. As for the experimental part: Antiviral HIV activity and cytotoxicity values for compounds of the invention from Table 1 were measured in parallel in the HTLV-1 transformed cell line MT-4 based on the method previously described (Hazen et al., 2007, In vitro antiviral activity of the novel, tyrosyl-based human immunodeficiency virus (HIV) type 1 protease inhibitor brecanavir (GW640385) in combination with other antiretrovirals and against a panel of protease inhibitor-resistant HIV (Hazen et al., “In vitro antiviral activity of the novel, tyrosyl-based human immunodeficiency virus (HIV) type 1 protease inhibitor brecanavir (GW640385) in combination with other antiretrovirals and against a panel of protease inhibitor-resistant HIV”, Antimicrob. Agents Chemother. 2007, 51: 3147-3154; and Pauwels et al., “Sensitive and rapid assay on MT-4 cells for the detection of antiviral compounds against the AIDS virus”, J. of Virological Methods 1987, 16: 171-185).
Luciferase activity was measured 96 hours later by adding a cell titer glo (Promega, Madison, Wis.). Percent inhibition of cell protection data was plotted relative to no compound control. Under the same condition, cytotoxicity of the compounds was determined using cell titer Glo™ (Promega, Madison, Wis.). IC50s were determined from a 10 point dose response curve using 3-4-fold serial dilution for each compound, which spans a concentration range >1000 fold. […]
Background: Cellular ATP, detected with luciferase, serves as a proxy for viable cell number.

What is called IC50 is the concentration that inhibits the measured activity by half. For `Cc1c(-c2c(C)c3c(c(C)c2[C@H](OC(C)(C)C)C(=O)O)CN(C(=O)c2cccc(F)c2)[C@@H]3C)cc(F)c2c1CCCO2` (atropisomer, axis not shown; (M)) [Example 1], the IC50 amounted to 1.7 nM.
